Source: paper doi:10.1101/2025.05.09.652710v1 (bioRxiv, 2025)

Key:
[1] = test system: chimeric VSV SARS-CoV-2 virus; conditions: chimeric VSV virus
[2] = target: T1, matriptase (Homo sapiens, UniProt Q9Y5Y6); test: Fluorogenic kinetic enzyme inhibitor assay, matriptase; type: biochemical
T1 sequence (Q9Y5Y6 615-855): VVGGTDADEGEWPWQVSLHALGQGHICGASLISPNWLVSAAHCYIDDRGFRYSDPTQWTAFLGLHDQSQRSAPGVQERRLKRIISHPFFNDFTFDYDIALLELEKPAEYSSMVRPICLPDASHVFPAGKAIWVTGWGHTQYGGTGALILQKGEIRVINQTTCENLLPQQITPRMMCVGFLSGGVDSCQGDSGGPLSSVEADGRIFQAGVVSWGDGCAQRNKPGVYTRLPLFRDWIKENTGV

[3] = target: thrombin (Homo sapiens, UniProt P00734); test: Chromogenic kinetic enzyme assay, thrombin; type: biochemical
[4] = target: T2, HGFA (Homo sapiens, UniProt Q04756); test: Fluorogenic kinetic enzyme inhibitor assay, HGFA; type: biochemical
T2 sequence (Q04756 373-655): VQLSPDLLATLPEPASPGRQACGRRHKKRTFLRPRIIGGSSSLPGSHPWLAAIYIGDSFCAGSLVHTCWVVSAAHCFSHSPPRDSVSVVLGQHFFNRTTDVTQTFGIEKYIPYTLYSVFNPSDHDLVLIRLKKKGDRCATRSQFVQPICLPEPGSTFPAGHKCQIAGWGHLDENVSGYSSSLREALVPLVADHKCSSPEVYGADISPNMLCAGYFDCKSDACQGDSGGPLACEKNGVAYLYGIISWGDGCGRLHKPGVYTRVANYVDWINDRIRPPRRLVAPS

[5] = target: hepsin (Homo sapiens, UniProt P05981); test: Fluorogenic kinetic enzyme inhibitor assay, hepsin; type: biochemical
Sequence of hepsin (P05981 163-417 limits assumed): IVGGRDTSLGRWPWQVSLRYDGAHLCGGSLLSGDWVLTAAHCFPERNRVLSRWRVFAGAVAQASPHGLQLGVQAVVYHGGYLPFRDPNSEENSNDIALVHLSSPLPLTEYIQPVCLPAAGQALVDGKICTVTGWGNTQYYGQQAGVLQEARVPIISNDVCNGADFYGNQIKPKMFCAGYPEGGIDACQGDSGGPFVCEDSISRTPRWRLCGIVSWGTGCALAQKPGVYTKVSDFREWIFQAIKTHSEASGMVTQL
Sequence of hepsin (P05981 45-162 partner limits assumed): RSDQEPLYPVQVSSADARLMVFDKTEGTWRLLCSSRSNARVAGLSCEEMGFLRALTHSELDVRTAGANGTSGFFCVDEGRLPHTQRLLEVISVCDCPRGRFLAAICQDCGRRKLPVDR

[6] = target: TMPRSS2 (Homo sapiens, UniProt O15393, Q253D/R252D/R255K/S251D/S254D); test: Fluorogenic kinetic enzyme inhibitor assay, TMPRSS2; type: biochemical
Sequence of TMPRSS2 (O15393 109-492 S251D/R252D/Q253D/S254D/R255K limits assumed): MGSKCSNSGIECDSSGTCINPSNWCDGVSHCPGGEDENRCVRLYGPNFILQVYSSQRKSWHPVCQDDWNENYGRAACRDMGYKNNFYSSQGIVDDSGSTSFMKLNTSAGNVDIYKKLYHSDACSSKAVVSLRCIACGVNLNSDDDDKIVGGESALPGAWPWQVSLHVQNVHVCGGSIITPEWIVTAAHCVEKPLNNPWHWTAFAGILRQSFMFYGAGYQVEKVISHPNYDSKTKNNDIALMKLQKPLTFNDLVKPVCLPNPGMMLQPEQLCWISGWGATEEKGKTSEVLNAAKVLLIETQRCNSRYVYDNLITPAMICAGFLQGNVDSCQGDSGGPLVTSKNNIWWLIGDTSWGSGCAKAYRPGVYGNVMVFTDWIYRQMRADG

[7] = target: Factor Xa (Homo sapiens, UniProt P00742); test: Chromogenic kinetic enzyme assay, Factor Xa; type: biochemical
Sequence of Factor Xa (P00742 235-488 limits assumed): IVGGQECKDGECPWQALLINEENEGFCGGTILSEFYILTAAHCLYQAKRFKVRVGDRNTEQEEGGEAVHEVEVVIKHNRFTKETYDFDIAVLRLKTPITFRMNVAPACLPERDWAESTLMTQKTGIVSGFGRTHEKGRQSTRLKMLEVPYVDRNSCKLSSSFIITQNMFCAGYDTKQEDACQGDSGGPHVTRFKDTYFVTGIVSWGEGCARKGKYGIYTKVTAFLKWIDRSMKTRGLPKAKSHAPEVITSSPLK
Sequence of Factor Xa (P00742 41-179 partner limits assumed): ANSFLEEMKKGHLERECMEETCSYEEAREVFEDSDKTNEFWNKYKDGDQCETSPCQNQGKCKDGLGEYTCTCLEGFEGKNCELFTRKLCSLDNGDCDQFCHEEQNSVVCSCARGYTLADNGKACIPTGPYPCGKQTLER

[8] = test system: influenza A virus strain A/California/4/2009 (pdmH1N1); conditions: for H1N1 titer Log fold reduction (1 μM): virus strain A/California/4/2009 (pdmH1N1, 72 h, 1 μM); for H1N1 titer Log fold reduction (10 μM): virus strain A/California/4/2009 (pdmH1N1, 72 h, 10 μM)

SMILES	EC50 [1] [nM]	IC50 [2] [nM]	IC50 [3] [nM]	IC50 [4] [nM]	IC50 [5] [nM]	IC50 [6] [nM]	IC50 [7] [nM]	H1N1 Fold inhibition @ 0.1 μM [8]	H1N1 Fold inhibition @ 1 μM [8]	H1N1 Fold inhibition @ 10 μM [8]	H1N1 titer Log fold reduction (1 μM) [8]	H1N1 titer Log fold reduction (10 μM) [8]
CC[C@H](C)[C@H](NC(C)=O)C(=O)N[C@@H](CCC(N)=O)C(=O)N[C@@H](Cc1ccccc1)C(=O)N[C@@H](CCCNC(=N)N)C(=O)c1nc2ccccc2s1 [MM3116, Ac-IQFR-kbt]	3.6	0.92	> 20000	30	0.14	1.7	792	–	–	–	–	–
CC[C@H](C)[C@H](NC(C)=O)C(=O)N[C@@H](CCC(N)=O)C(=O)N[C@@H](CO)C(=O)N[C@@H](CCCNC(=N)N)C(=O)c1nc2ccccc2s1 [MM3177, Ac-IQSR-kbt]	36	1.3	> 20000	19900	2.4	4.5	1730	–	–	–	–	–
CC[C@H](C)[C@H](NC(C)=O)C(=O)N[C@@H](CCC(N)=O)C(=O)N[C@@H](C)C(=O)N[C@@H](CCCNC(=N)N)C(=O)c1nc2ccccc2s1 [MM3178, Ac-IQAR-kbt]	11	0.1	> 20000	> 20000	1.3	0.23	170	2	91	238	2.0	2.4
CC[C@H](C)[C@H](NC(C)=O)C(=O)N[C@@H](CCC(N)=O)C(=O)N[C@H](C(=O)N[C@H](CCCNC(=N)N)C(=O)c1nc2ccccc2s1)C(C)C [MM3180-1, Ac-IQVdR-kbt]	–	22.9	> 20000	14600	1.72	2.89	> 20000	–	–	–	–	–
CC[C@H](C)[C@H](NC(C)=O)C(=O)N[C@@H](CCC(N)=O)C(=O)N[C@H](C(=O)N[C@@H](CCCNC(=N)N)C(=O)c1nc2ccccc2s1)[C@@H](C)O [MM3186, Ac-IQTR-kbt]	19	16	> 20000	18400	0.98	0.17	> 20000	–	–	–	–	–
CC[C@H](C)[C@H](NC(C)=O)C(=O)N[C@@H](CCC(N)=O)C(=O)N[C@@H](Cc1c[nH]c2ccccc12)C(=O)N[C@@H](CCCNC(=N)N)C(=O)c1nc2ccccc2s1 [MM3187, Ac-IQWR-kbt]	22	1.2	> 20000	1450	0.32	2.2	129	–	–	–	–	–
CC[C@H](C)[C@H](NC(C)=O)C(=O)N[C@H](Cc1c[nH]c2ccccc12)C(=O)N[C@@H](Cc1ccccc1)C(=O)N[C@@H](CCCNC(=N)N)C(=O)c1nc2ccccc2s1 [MM4038, Ac-IdWFR-kbt]	226	25	> 20000	66	12	0.04	–	–	–	–	2.1	3.0
